Laboratory results as given in patent publication US11802110B2, “2-amino-N-(arylsulfinyl)-acetamide compounds as inhibitors of bacterial aminoacyl-tRNA synthetase” (priority 2016, dated 2023).
Values after ≈ are worked out from the molar mass of the structure shown. Like-named read-outs stand apart in the source and are kept apart here.

Tests used:
[1] = tested on: Acinetobacter baumannii B1931 clinical isolate; experiment: Study 4 - MIC by broth micro-dilution (CLSI); format: cell-based
Protocol: (§1) Minimum Inhibitory Concentrations (MICs) were determined by the broth micro-dilution method performed according to Clinical Laboratory Standards Institute guidelines. For testing, 5 mg/mL DMSO solutions were prepared by dissolving solids in DMSO. Standard antibiotics were prepared according to CLSI guidelines as 5 mg/mL stock solutions. Upon DMSO stock solutions preparation, the working solutions in MH media were prepared by adding 38.4 μL of stock solution to 1461.6 μL of MH media. Out of these working solutions 100 μL were transferred to wells in the third column of 96-well assay plates. Assay plates were previously filled with 50 μL of MH media in all wells except for the wells in the third column. Upon compounds and antibiotics addition, 50 μL was transferred from the third to the fourth column, then from the fourth to the fifth and so on.
(§2) MIC value was determined by visual inspection of bacterial growth within 96-well plates. The first column in which there was no visible growth of bacteria was determined as MIC value for compound or antibiotic tested in that particular row. ATCC strains were used as reference strains for which there is a determined value of MIC values for standard antibiotics. The assay is considered valid when MIC values for standard antibiotics are within CLSI designated range for ATCC strain tested.

[2] = tested on: Enterobacter cloacae B1966 clinical isolate; experiment: Study 4 - MIC by broth micro-dilution (CLSI); format: cell-based
Protocol: as §1, §2

[3] = tested on: Escherichia coli ATCC 25922; experiment: Study 4 - MIC by broth micro-dilution (CLSI); format: cell-based
Protocol: as §1, §2

[4] = tested on: Haemophilus influenzae ATCC 49247; experiment: Study 4 - MIC by broth micro-dilution (CLSI); format: cell-based; settings: G = H. influenzae ATCC 49247
Protocol: as §1, §2

[5] = tested on: Klebsiella pneumoniae ATCC 700603; experiment: Study 4 - MIC by broth micro-dilution (CLSI); format: cell-based
Protocol: as §1, §2

[6] = tested on: Pseudomonas aeruginosa ATCC 27853; experiment: Study 4 - MIC by broth micro-dilution (CLSI); format: cell-based
Protocol: as §1, §2

[7] = tested on: Escherichia coli ATCC 25922 TolC deficient mutant (E. coli EFFLUX del); experiment: microbe, parasite or virus in culture; format: cell-based
Protocol: as §1, §2

[8] = Human cell viability (cytotoxicity), ATP levels by CellTiter-Glo; format: cell-based; settings: HepG2 cells (ATCC HB-8065), 24 hours incubation, read-out: IC50 (μg/mL), Cytotoxicity in HepG2 ATCC HB-8065 Cell Line
Protocol: Compounds were assessed for potential non-specific cytotoxic effects against a human hepatic cell line (HepG2 ATCC HB-8065). 96-well plates were seeded with HepG2 cells in concentration of 15,000 cells per well in 100 μL of MEM growth media completed with 1% NEAA and 1% sodium pyruvate. Border wells were filled with 100 μL of sterile PBS. Two days upon cells incubation, the compounds were added. Compound dilutions were prepared in 96-well V-bottom plate in pure DMSO. Growth media from 5 plates were aspirated and replaced with 98.7 μL of fresh growth media. 1.28 μL of compounds prepared in V-bottom plates were transferred with multichannel pipette into test plates (78.1× dilution). Final DMSO concentration was 1.28% per well. In control wells, 1.28 μL of DMSO was added in 98.7 μL of media. Compounds were tested in duplicates. Cells were incubated with compounds for 24 hours when cell viability was assessed by measuring ATP levels. ATP levels were measured by adding 50 μL of CellTiter-Glo reagent to each well and after 5 minutes of incubation luminescence was measured with SpectraMax i3. The potential effect of tested compounds on cell viability was determined by comparing the signal obtained in presence of different concentrations of the compounds with those obtained in the presence of DMSO only. The potential effects were then calculated and presented as IC50 values (μg/mL).

E. Coli LeuRS = E. Coli LeuRS (Escherichia coli (strain K12), UniProt P07813); experiment: Study 2 - Isothermal titration calorimetry (ITC); format: binding; settings: 25° C., pH 7.5, mean ± SD
Sequence of E. Coli LeuRS (P07813 whole entry): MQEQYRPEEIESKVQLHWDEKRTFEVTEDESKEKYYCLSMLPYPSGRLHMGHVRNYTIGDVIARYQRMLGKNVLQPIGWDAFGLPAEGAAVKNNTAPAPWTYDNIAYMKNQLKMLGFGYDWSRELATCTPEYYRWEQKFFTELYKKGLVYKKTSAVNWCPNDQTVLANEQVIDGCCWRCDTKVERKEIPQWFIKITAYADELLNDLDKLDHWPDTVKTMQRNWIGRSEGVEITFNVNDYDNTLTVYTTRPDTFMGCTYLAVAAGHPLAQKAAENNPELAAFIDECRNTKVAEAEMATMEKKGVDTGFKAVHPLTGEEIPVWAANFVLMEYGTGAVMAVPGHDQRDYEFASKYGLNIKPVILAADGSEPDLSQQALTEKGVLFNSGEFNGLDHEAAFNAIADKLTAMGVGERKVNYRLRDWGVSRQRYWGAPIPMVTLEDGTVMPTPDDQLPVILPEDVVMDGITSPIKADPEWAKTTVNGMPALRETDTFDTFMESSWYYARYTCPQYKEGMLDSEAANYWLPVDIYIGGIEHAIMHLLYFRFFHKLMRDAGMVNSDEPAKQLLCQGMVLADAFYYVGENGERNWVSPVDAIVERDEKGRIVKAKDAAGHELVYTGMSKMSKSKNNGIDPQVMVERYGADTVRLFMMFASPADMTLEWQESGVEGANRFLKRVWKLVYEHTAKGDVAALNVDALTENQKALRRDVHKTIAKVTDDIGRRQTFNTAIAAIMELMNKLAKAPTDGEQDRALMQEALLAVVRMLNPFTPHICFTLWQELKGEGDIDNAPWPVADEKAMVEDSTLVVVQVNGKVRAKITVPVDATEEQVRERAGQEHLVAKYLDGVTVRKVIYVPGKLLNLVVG
Protocol: Escherichia coli BL21(DE3) cells transformed with plasmid pQE-60 containing the open-reading frame sequence of one targeted aaRS (i.e., LeuRS) were induced with 1 mM IPTG (isopropyl β-D-1-thiogalactopyranoside) for 3 hours at 37° C. Bacterial cells were harvested and lysed with 20 mM HEPES (4-(2-hydroxyethyl)-1-piperazinylethane-sulfonic acid) (pH 7.5), 300 mM NaCl, 15 mM imidazole and 1 mM DTT (1,4-dithio-D-threitol). The pathogenic aaRS was first purified by nickel affinity standard chromatography. The eluted protein was concentrated and then further purified by gel filtration using 50 mM HEPES (pH 7.5), 150 mM NaCl buffer.
ITC studies were carried out using a Microcal ITC200 instrument (GE Healthcare). Protein concentration was determined by spectrophotometry by measuring the absorbance at 280 nm using a theoretical molar extinction coefficient of 169,140 M^−1cm^−1. Ligand stock solutions were prepared in DMSO at 62.5 mM concentration. The titrations were performed at 25° C. with 7.5-100 μM E. Coli LeuRS in 50 mM HEPES, 150 mM NaCl, pH 7.5 buffer containing 1% DMSO (v/v). The protein solution in the 280 μL sample cell was titrated with the inhibitor solution (diluted to 75-3000 μM in the same buffer as the protein) using 1-2 μL injections every 120-140 seconds. All titrations were repeated at least two times. To correct for heats of dilution and mixing, the final baseline consisting of small peaks of identical size at the end of each experiment was subtracted. The experimental data were fitted to a theoretical titration curve (one site model) using MicroCal Origin 7 SR4 software.
Note that Compounds R-4.1 and S-4.1 (in Table 15, below) correspond to Compounds V-i and V-ii (in Tables 13 and 14, above), respectively.

[9] = Haemophilus influenzae, ATCC49247, read-out: MIC
[10] = Klebsiella pneumoniae, ATCC700603
[11] = Pseudomonas aeruginosa, ATCC27853

| Structure (SMILES) | IC50 at 24 h [8] | MIC ([1]; Acinetobacter baumannii) | MIC ([2]; Enterobacter cloacae) | MIC ([3]; Escherichia coli, ATCC25922) | MIC [4, 9] | MIC [5, 10] | MIC [6, 11] | other results |
| --- | --- | --- | --- | --- | --- | --- | --- | --- |
| CC(C)(O/N=C(\C(=O)N[C@@H]1C(=O)N2C(C(=O)[O-])=C(C[n+]3ccccc3)CS[C@H]12)c1csc(N)n1)C(=O)O [Ceftazidime] | – | – | – | – | – | – | – | MIC ([1]; F = A. baumannii B1931): 2 µg/mL (≈ 3.66 µM); MIC ([2]; C = Enterobacter cloacae B1966): 0.5 µg/mL (≈ 0.915 µM); MIC ([3]; A = E. coli ATCC 25922): 0.25 µg/mL (≈ 0.457 µM); MIC [4]: 16 µg/mL (≈ 29.3 µM); MIC ([5]; D = KI. pneumoniae ATCC 700603): >64 µg/mL; MIC ([6]; E = P. aeruginosa ATCC 27853): >64 µg/mL; MIC ([7]; B = E. coli EFFLUX del): 0.25 µg/mL (≈ 0.457 µM) |
| CC(C)CC(N)C(=O)N[S+]([O-])c1cccs1 (stereo not drawn) [4.41] | > 64 µg/mL | – | – | – | – | – | – | – |
| CC(C)CC(N)C(=O)N[S+]([O-])c1ccc(F)c(Cl)c1 (stereo not drawn) [4.37] | > 64 µg/mL | 64 µg/mL (≈ 209 µM) | 64 µg/mL (≈ 209 µM) | 8 µg/mL (≈ 26.1 µM) | 32 µg/mL (≈ 104 µM) | > 64 µg/mL | > 64 µg/mL | MIC ([7]; Escherichia coli, ATCC25922): 8 µg/mL (≈ 26.1 µM) |
| CC(C)CC(N)C(=O)N[S+]([O-])c1cccc(-c2ccn(C)n2)c1 (stereo not drawn) [4.26] | > 64 µg/mL | > 64 µg/mL | > 64 µg/mL | 64 µg/mL (≈ 191 µM) | > 64 µg/mL | > 64 µg/mL | > 64 µg/mL | MIC ([7]; Escherichia coli, ATCC25922): 64 µg/mL (≈ 191 µM) |
| NC(Cc1ccccc1)C(=O)N[S+]([O-])c1ccccc1 (stereo not drawn) [4.8] | > 64 µg/mL | – | – | – | – | – | – | – |
| CC(C)CC(N)C(=O)N[S+]([O-])c1ccccc1C#N (stereo not drawn) [4.30] | 32.5 µg/mL (≈ 116 µM) | 8 µg/mL (≈ 28.6 µM) | 32 µg/mL (≈ 115 µM) | 16 µg/mL (≈ 57.3 µM) | 8 µg/mL (≈ 28.6 µM) | 32 µg/mL (≈ 115 µM) | 32 µg/mL (≈ 115 µM) | MIC ([7]; Escherichia coli, ATCC25922): 16 µg/mL (≈ 57.3 µM) |
| COCc1cccc([S+]([O-])NC(=O)C(N)CC(C)C)c1 (stereo not drawn) [4.23] | – | – | – | – | – | – | – | Kd (E. Coli LeuRS): 17.5 ± 1.1 nM; ΔG (E. Coli LeuRS): -10.58 ± 0.03 kcal/mol; ΔH (E. Coli LeuRS): -7.06 ± 0.75 kcal/mol |
| CC(C)CC(C)(N)C(=O)N[S+]([O-])c1ccccc1 (stereo not drawn) [4.7] | > 64 µg/mL | – | – | – | – | – | – | Kd (E. Coli LeuRS): 1820 ± 256 nM; ΔG (E. Coli LeuRS): -7.84 ± 0.09 kcal/mol; ΔH (E. Coli LeuRS): -1.66 ± 0.75 kcal/mol |
| Cc1ccc([S+]([O-])NC(=O)C(N)CC(C)C)c(F)c1 (stereo not drawn) [4.38] | > 64 µg/mL | – | – | – | – | – | – | – |
| CC(C)CC(N)C(=O)N[S+]([O-])c1cccc2ccccc12 (stereo not drawn) [4.39] | 46 µg/mL (≈ 151 µM) | 64 µg/mL (≈ 210 µM) | 64 µg/mL (≈ 210 µM) | 16 µg/mL (≈ 52.6 µM) | 8 µg/mL (≈ 26.3 µM) | 64 µg/mL (≈ 210 µM) | > 64 µg/mL | Kd (E. Coli LeuRS): 12.8 ± 1.6 nM; ΔG (E. Coli LeuRS): -10.77 ± 0.08 kcal/mol; ΔH (E. Coli LeuRS): -9.29 ± 0.62 kcal/mol |
| CCC(C)C(N)C(=O)N[S+]([O-])c1ccccc1 (stereo not drawn) [4.2] | > 32 µg/mL | – | – | – | – | – | – | – |
| NC(C(=O)N[S+]([O-])c1ccccc1)c1ccccc1 (stereo not drawn) [4.9] | > 64 µg/mL | – | – | – | – | – | – | – |
| CSCCC(N)C(=O)N[S+]([O-])c1ccccc1 (stereo not drawn) [4.3] | > 64 µg/mL | – | – | – | – | – | – | – |
